# From patent US20090209577A1, “Novel Triazolopyridine Compounds” (PFIZER INC., priority 2004, published 2009)
# Counter-ions that a name gives are not always drawn.
# Target: T1, human p38 kinase alpha (Homo sapiens, UniProt Q16539)
# T1 construct: The coding region of the human p38a cDNA was obtained by PCR-amplification from RNA isolated from the human monocyte cell line THP.1; made in house; host or cells: E. coli DH10B
# Assay: p38 kinase in vitro assay (PHAS-I / 32P-ATP format or EGFRP / 33P-ATP format)
# Assay type: biochemical
# Settings: activated human p38 kinase alpha, 50 μM unlabeled ATP; two assay formats, table does not say which
# Procedure: The ability of compounds to inhibit human p38 kinase alpha was evaluated using two in vitro assay methods. In the first method, activated human p38 kinase alpha phosphorylates a biotinylated substrate, PHAS-I (phosphorylated heat and acid stable protein-insulin inducible), in the presence of gamma ^32P-ATP (^32P-ATP). PHAS-I was biotinylated prior to the assay and provides a means of capturing the substrate, which is phosphorylated during the assay. p38 Kinase was activated by MKK6. Compounds were tested in 10 fold serial dilutions over the range of 100 μM to 0.001 μM using 1% DMSO. Each concentration of inhibitor was tested in triplicate.
# All reactions were carried out in 96 well polypropylene plates. Each reaction well contained 25 mM HEPES pH 7.5, 10 mM magnesium acetate and 50 μM unlabeled ATP. Activation of p38 was required to achieve sufficient signal in the assay. Biotinylated PHAS-1 was used at 1-2 μg per 50 μl reaction volume, with a final concentration of 1.5 μM. Activated human p38 kinase alpha was used at 1 μg per 50 μl reaction volume representing a final concentration of 0.3 μM. Gamma ^32P-ATP was used to follow the phosphorylation of PHAS-1. ^32P-ATP has a specific activity of 3000 Ci/mmol and was used at 1.2 μCi per 50 μl reaction volume. The reaction proceeded either for one hour or overnight at 30° C.
# Following incubation, 20 μl of reaction mixture was transferred to a high capacity streptavidin coated filter plate (SAM-streptavidin-matrix, Promega) prewetted with phosphate buffered saline. The transferred reaction mix was allowed to contact the streptavidin membrane of the Promega plate for 1-2 minutes. Following capture of biotinylated PHAS-1 with ^32P incorporated, each well was washed to remove unincorporated ^32P-ATP three times with 2M NaCl, three washes of 2M NaCl with 1% phosphoric, three washes of distilled water and finally a single wash of 95% ethanol. Filter plates were air-dried and 20 μl of scintillant was added. The plates were sealed and counted.
# A second assay format was also employed that is based on p38 kinase alpha induced phosphorylation of EGFRP (epidermal growth factor receptor peptide, a 21 mer) in the presence ^33P-ATP. Compounds were tested in 10 fold serial dilutions over the range of 100 μM to 0.001 μM in 1% DMSO. Each concentration of inhibitor was tested in triplicate. Compounds were evaluated in 50 μl reaction volumes in the presence of 25 mM Hepes pH 7.5, 10 mM magnesium acetate, 4% glycerol, 0.4% bovine serum albumin, 0.4 mM DTT, 50 μM unlabeled ATP, 25 μg EGFRP (200 μM), and 0.05 μCi ^33P-ATP. Reactions were initiated by addition of 0.09 μg of activated, purified human GST-p38 kinase alpha. Activation was carried out using GST-MKK6 (5:1, p38:MKK6) for one hour at 30° C. in the presence of 50 μM ATP. Following incubation for 60 minutes at room temperature, the reaction was stopped by addition of 150 μl of AG 1×8 resin in 900 mM sodium formate buffer, pH 3.0 (1 volume resin to 2 volumes buffer). The mixture was mixed three times with pipetting and the resin was allowed to settle. A total of 50 μl of clarified solution head volume was transferred from the reaction wells to Microlite-2 plates. 150 μl of Microscint 40 was then added to each well of the Microlite plate, and the plate was sealed, mixed, and counted.
# The above protocol assays were used to determine the IC50 values for compounds in Examples 1-71 above.
# T1 sequence (Q16539 whole entry): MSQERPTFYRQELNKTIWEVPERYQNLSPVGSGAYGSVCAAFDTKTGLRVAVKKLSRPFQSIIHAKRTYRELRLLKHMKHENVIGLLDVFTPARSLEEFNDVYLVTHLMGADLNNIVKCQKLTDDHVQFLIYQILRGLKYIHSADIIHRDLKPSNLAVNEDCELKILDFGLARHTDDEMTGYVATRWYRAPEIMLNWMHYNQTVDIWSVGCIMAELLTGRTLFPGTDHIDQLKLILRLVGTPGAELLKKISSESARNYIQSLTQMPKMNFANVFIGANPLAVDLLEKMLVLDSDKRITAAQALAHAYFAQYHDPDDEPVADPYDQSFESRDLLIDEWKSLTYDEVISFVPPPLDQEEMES
row,IC50 [nM],Structure (SMILES)
1,2500,"CC(C)c1nnc2ccc(Cc3ccc(F)cc3)cn12 [Example 69, 6-(4-fluorobenzyl)-3-isopropyl[1,2,4]triazolo[4,3-a]pyridine]"
2,13300,"Fc1cccc(F)c1-c1nnc2ccc(Br)cn12 [Example 40, 6-bromo-3-(2,6-difluorophenyl)[1,2,4]triazolo[4,3-a]pyridine]"
3,122,"CC(C)(C)c1nnc2ccc(Cc3ccc(F)cc3F)cn12 [Example 70, 3-tert-butyl-6-(2,4-difluorobenzyl)[1,2,4]triazolo[4,3-a]pyridine]"
4,1740,"CC(C)(CC(O)CO)c1nnc2ccc(Sc3ccc(F)cc3F)cn12 (centres unmarked) [Example 33, 4-{6-[(2,4-difluorophenyl)thio][1,2,4]triazolo[4,3,a]pyridin-3-yl}-4-methylpentane-1,2-diol hydrochloride]"
5,> 100000,"NC(=O)c1cccc(-c2nnc3ccc(C(=O)c4ccc(F)cc4F)cn23)c1 [Example 30, 3-[6-(2,4-difluorobenzoyl)[1,2,4]triazolo[4,3-a]pyridin-3-yl]benzamide]"
6,50500,"CC(C)c1nnc2ccc(Sc3ccc(F)cc3C(F)(F)F)cn12 [Example 53, 6-{[4-fluoro-2-(trifluoromethyl)phenyl]thio}-3-isopropyl[1,2,4]triazolo[4,3-a]pyridine hydrochloride]"
7,4.8,"CC(C)(C)c1nnc2ccc(Sc3ccc(F)cc3F)cn12 [Example 48, 3-tert-butyl-6-[(2,4-difluorophenyl)thio][1,2,4]triazolo[4,3-a]pyridine]"
8,3380,"CC(C)c1nnc2cc(Cl)c(Sc3ccc(F)cc3F)c(Cl)n12 [Example 34, 5,7-dichloro-6-[(2,4-difluorophenyl)thio]-3-isopropyl[1,2,4]triazolo[4,3-a]pyridine]"
9,5260,"CC(C)c1nnc2ccc(Cc3cccc(F)c3)cn12 [Example 68, 6-(3-fluorobenzyl)-3-isopropyl[1,2,4]triazolo[4,3-a]pyridine]"
10,16.3,"C=CCC(C)(C)c1nnc2ccc(Sc3ccc(F)cc3F)cn12 [33 (step 2), 6-[(2,4-difluorophenyl)thio]-3-(1,1-dimethylbut-3-enyl)[1,2,4]triazolo[4,3-a]pyridine hydrochloride]"
11,2290,"C=Cc1ccc(-c2nnc3ccc(Cc4ccc(F)cc4F)cn23)cc1 [62 (step 2), 6-(2,4-difluorobenzyl)-3-(4-vinylphenyl)[1,2,4]triazolo[4,3-a]pyridine]"
12,698,"CC1(C)OCC(CC(C)(C)c2nnc3ccc(Sc4ccc(F)cc4F)cn23)O1 (centres unmarked) [33 (step 3), 6-[(2,4-difluorophenyl)thio]-3-[2-(2,2-dimethyl-1,3-dioxolan-4-yl)-1,1-dimethylethyl][1,2,4]triazolo[4,3-a]pyridine hydrochloride]"
13,> 100000,"C=Cc1ccc2nnc(C(C)C)n2c1 [Example 56, 3-isopropyl-6-vinyl[1,2,4]triazolo[4,3-a]pyridine]"
14,5590,"CC(C)c1nnc2n1CC(Cc1ccc(F)cc1F)CC2 (centres unmarked) [Example 8, 6-(2,4-difluorobenzyl)-3-isopropyl-5,6,7,8-tetrahydro[1,2,4]triazolo[4,3-a]pyridine hydrochloride]"
15,107,"COC(=O)c1ccc(C)c(-c2nnc3n2CC(CCc2ccc(F)cc2F)CC3)c1 (racemic) [Example 18, racemic methyl 3-{6-[2-(2,4-difluorophenyl)ethyl]-5,6,7,8-tetrahydro[1,2,4]triazolo[4,3-a]pyridin-3-yl}-4-methylbenzoate]"
16,> 100000,"CC(C)(C)c1nnc2ccc(O)c(Cc3ccc(F)cc3F)n12 [Example 13, 3-tert-butyl-5-(2,4-difluorobenzyl)[1,2,4]triazolo[4,3-a]pyridin-6-ol]"

row,IC50 [nM],Structure (SMILES)
1,7550,"Cc1ccc(C(=O)O)cc1-c1nnc2n1CC(CCc1ccc(F)cc1F)CC2 (racemic) [Example 19, racemic 3-{6-[2-(2,4-difluorophenyl)ethyl]-5,6,7,8-tetrahydro[1,2,4]triazolo[4,3-a]pyridin-3-yl}-4-methylbenzoic acid]"
2,54.6,"CC(C)(C)c1nnc2ccc(Sc3c(Cl)cccc3Cl)cn12 [Example 63, 3-tert-butyl-6-[(2,6-dichlorophenyl)thio][1,2,4]triazolo[4,3-a]pyridine]"
3,101,"Cc1c(Sc2ccc(F)cc2F)ccc2nnc(C(C)C)n12 [Example 38, 6-[(2,4-difluorophenyl)thio]-3-isopropyl-5-methyl[1,2,4]triazolo[4,3-a]pyridine]"
4,5.3,"OCC(O)c1ccc(-c2nnc3ccc(Sc4ccc(F)cc4F)cn23)cc1 (racemic) [Example 31, racemic-1-(4-{6-[(2,4-difluorophenyl)thio][1,2,4]triazolo[4,3-a]pyridin-3-yl}phenyl)ethane-1,2-diol hydrochloride]"
5,2710,"Cc1ccc(C(=O)O)cc1-c1nnc2ccc(CCc3ccc(F)cc3F)cn12 [Example 21, 3-{6-[2-(2,4-difluorophenyl)ethyl][1,2,4]triazolo[4,3-a]pyridin-3-yl}-4-methylbenzoic acid]"
6,8240,"CC(C)c1nnc2ccc(Sc3c(Cl)cc(Cl)cc3Cl)cn12 [Example 55, 3-isopropyl-6-[(2,4,6-trichlorophenyl)thio][1,2,4]triazolo[4,3-a]pyridine hydrochloride]"
7,141,"COC(=O)c1cccc(-c2nnc3ccc(Cc4ccc(F)cc4F)cn23)c1 [Example 58, methyl 3-[6-(2,4-difluorobenzyl)[1,2,4]triazolo[4,3-a]pyridin-3-yl]benzoate]"
8,24.9,"CC1(c2nnc3ccc(Sc4ccc(F)cc4F)cn23)CC1 [Example 46, 6-[(2,4-difluorophenyl)thio]-3-(1-methylcyclopropyl)[1,2,4]triazolo[4,3-a]pyridine hydrochloride]"
9,> 100000,"CC(C)c1nnc2ccc(Sc3ccc(Br)cc3C(F)(F)F)cn12 [Example 51, 6-{[4-bromo-2-(trifluoromethyl)phenyl]thio}-3-isopropyl[1,2,4]triazolo[4,3-a]pyridine hydrochloride]"
10,> 100000,"O=C(O)c1ccc(-c2nnc3ccc(Cc4ccc(F)cc4F)cn23)cc1 [Example 59, 4-[6-(2,4-difluorobenzyl)[1,2,4]triazolo[4,3-a]pyridin-3-yl]benzoic acid]"
11,93.6,"O=C(NCCO)c1ccc(-c2nnc3ccc(Sc4ccc(F)cc4F)cn23)cc1 [Example 25, 4-{6-[(2,4-difluorophenyl)thio][1,2,4]triazolo[4,3-a]pyridin-3-yl}-N-(2-hydroxyethyl)benzamide]"
12,106,"C=Cc1ccc(-c2nnc3ccc(Sc4ccc(F)cc4F)cn23)c(C)c1 [45 (step 3), 6-[(2,4-difluorophenyl)thio]-3-(2-methyl-4-vinylphenyl)[1,2,4]triazolo[4,3-a]pyridine hydrochloride]"
13,2920,"Cc1ccc(C(=O)O)cc1-c1nnc2ccc(Sc3ccc(F)cc3F)cn12 [41 (step 4), 3-{6-[(2,4-difluorophenyl)thio][1,2,4]triazolo[4,3-a]pyridin-3-yl}-4-methylbenzoic acid hydrochloride]"
14,85,"CC(C)c1nnc2ccc(CCc3ccc(F)cc3F)cn12 [Example 2, 6-[2-(2,4-difluorophenyl)ethyl]-3-isopropyl[1,2,4]triazolo[4,3-a]pyridine]"
15,3020,"NC(=O)c1ccc(-c2nnc3ccc(Cc4ccc(F)cc4F)cn23)cc1 [Example 27, 4-[6-(2,4-difluorobenzyl)[1,2,4]triazolo[4,3-a]pyridin-3-yl]benzamide]"
16,889,"CC(C)c1nnc2cc(Cl)c(Sc3ccc(F)cc3F)cn12 [Example 35, 7-chloro-6-[(2,4-difluorophenyl)thio]-3-isopropyl[1,2,4]triazolo[4,3-a]pyridine hydrochloride]"
